Consider 11 compounds from ChEMBL document CHEMBL1201862, “PubChem BioAssay data set” (2004).

Among the test systems are A549; HCC 2998; HCT-116; HOP-62; LOX IMVI; MDA-MB-231; MDA-MB-435; NCI-H226; OVCAR-4; OVCAR-5; PC-3; RPMI-8226; SK-MEL-2; SK-MEL-5; SNB-19; UO-31; CAKI-1; NCI-H460; UACC-257; BT-549.
What all share (assay): DTP human tumour cell line panel, 48 h

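Results reflect a 48-hour exposure of cells in 96-well plates to compound at five concentrations. Here, GI50 denotes the concentration required for 50% inhibition of growth.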 The source made the active and inactive calls. No stated cut-off is given here; in the data, active = GI50 up to about 1.1 µM and inactive = higher.

In general, GI50 refers to the concentration giving 50% growth inhibition. On to `Cc1cn(C2OC(CO[Si](C)(C)C(C)(C)C)C(N(C)O[Si](C)(C)C(C)(C)C)C2[Se]c2ccccc2)c(=O)[nH]c1=O` (stereo unspecified), for which the GI50 with A549 is 4.48 µM (inactive); with HCC 2998, 0.0325 µM (active); in the test with HCT-116, 3.56 µM (inactive); with HOP-62 it was 4.76 µM (inactive); in the test on LOX IMVI it was 2.94 µM (inactive); with MDA-MB-231, 6.27 µM (inactive). For the same compound, the GI50 with MDA-MB-435 is 3.79 µM (inactive); in the test with NCI-H226 it was 3.95 µM (inactive); in the test on OVCAR-4, 2.87 µM (inactive); with OVCAR-5 it was 2.82 µM (inactive); with PC-3 it was 3.85 µM (inactive); with RPMI-8226, 3.18 µM (inactive). Besides, the GI50 is 7.6 µM (inactive) with SK-MEL-2, 4.16 µM (inactive) in the test on SK-MEL-5, 5.82 µM (inactive) with SNB-19 and 3.23 µM (inactive) in the test with UO-31.
Take `COc1ccc2c(c1)c(CC(=O)O)c(C)n2C(=O)c1ccc(Cl)cc1`: the GI50 was > 100 µM (inactive) in the test on A549; 29.6 µM (inactive) with CAKI-1; 35.6 µM (inactive) in the test on HCC 2998; > 100 µM (inactive) in the test with HCT-116; 54.5 µM (inactive) in the test on HOP-62; > 100 µM (inactive) in the test with LOX IMVI. In addition, the GI50 is > 100 µM (inactive) in the test on MDA-MB-231; > 100 µM (inactive) in the test on MDA-MB-435; 98.4 µM (inactive) in the test with NCI-H226; 39.9 µM (inactive) with NCI-H460; > 100 µM (inactive) in the test on OVCAR-4; > 100 µM (inactive) in the test with OVCAR-5. For the same compound, the GI50 with PC-3 was 39 µM (inactive); in the test with RPMI-8226, 28.5 µM (inactive); in the test on SK-MEL-2, 60.3 µM (inactive); in the test on SK-MEL-5, > 100 µM (inactive); in the test on SNB-19, 56.9 µM (inactive); in the test on UACC-257 it was > 100 µM (inactive). Further, in the test on UO-31, the GI50 was 41.8 µM (inactive).
In the case of `Nc1nc(N)c2ncn(Cc3ccccc3CCl)c2n1`, the GI50 in the test on A549, with BT-549, with CAKI-1, with HCT-116, with HOP-62 and in the test on MDA-MB-231 was > 100 µM (inactive) each time. The GI50 is > 100 µM (inactive) in the test with MDA-MB-435; > 100 µM (inactive) with NCI-H226; > 100 µM (inactive) in the test with NCI-H460; 80.5 µM (inactive) in the test with OVCAR-4; > 100 µM (inactive) with OVCAR-5; > 100 µM (inactive) in the test with PC-3. The GI50 with RPMI-8226 was > 100 µM (inactive); in the test with SK-MEL-2 it was > 100 µM (inactive); in the test with SK-MEL-5, 51.1 µM (inactive); with SNB-19, > 100 µM (inactive); with UACC-257, > 100 µM (inactive); in the test on UO-31, > 100 µM (inactive).
On to `O/N=C1\C/C(=N\O)c2c(Br)sc(Br)c21`, for which the GI50 is 26.2 µM (inactive) in the test on A549; 31.6 µM (inactive) with BT-549; 19.4 µM (inactive) in the test with CAKI-1; 23.7 µM (inactive) in the test on HCC 2998; 37.4 µM (inactive) with HCT-116; 32.1 µM (inactive) in the test on HOP-62. Also, the GI50 is 18.8 µM (inactive) with LOX IMVI; 77.1 µM (inactive) in the test with MDA-MB-231; 41.8 µM (inactive) in the test on MDA-MB-435; 51.8 µM (inactive) in the test with NCI-H226; > 100 µM (inactive) in the test with NCI-H460; 27.2 µM (inactive) in the test with OVCAR-4. The GI50 in the test on SK-MEL-2 is 43.4 µM (inactive); with SK-MEL-5 it was > 100 µM (inactive); in the test with UACC-257, > 100 µM (inactive); with UO-31, 20.6 µM (inactive).
With `O=c1c(NO)c([N+](=O)[O-])cnn1-c1ccccc1`, the GI50 is 18.5 µM (inactive) in the test on A549; 1.58 µM (inactive) in the test on BT-549; 5.53 µM (inactive) with CAKI-1; 5.47 µM (inactive) in the test on HCC 2998; 2.62 µM (inactive) in the test on HCT-116; 8.83 µM (inactive) with HOP-62. Further, the GI50 in the test on LOX IMVI was 1.79 µM (inactive); with MDA-MB-435, 1.88 µM (inactive); with NCI-H226, 7.87 µM (inactive); with NCI-H460 it was 4.88 µM (inactive); in the test on OVCAR-4 it was 3.81 µM (inactive); in the test with OVCAR-5, 7.28 µM (inactive). Also, the GI50 in the test with PC-3 is 1.55 µM (inactive); in the test on RPMI-8226, 4.93 µM (inactive); in the test on SK-MEL-2, 14.9 µM (inactive); in the test with SK-MEL-5, 6 µM (inactive); in the test with SNB-19, 10.9 µM (inactive); with UACC-257 it was 6.37 µM (inactive). In the test with UO-31, the GI50 was 5.27 µM (inactive).
As for `CC12ON=C(c3ccccc3)N1C=CN1C(c3ccccc3)=NOC12` (stereo unspecified), the GI50 was > 100 µM (inactive) with A549; > 100 µM (inactive) in the test on BT-549; > 100 µM (inactive) in the test with CAKI-1; > 100 µM (inactive) in the test with HCC 2998; 98.6 µM (inactive) with HCT-116; > 100 µM (inactive) in the test on HOP-62. In addition, the GI50 in the test with LOX IMVI, in the test on MDA-MB-231, in the test on NCI-H226, in the test with NCI-H460, with OVCAR-5 and in the test with PC-3 was > 100 µM (inactive) each time. Besides, the GI50 is 13 µM (inactive) in the test on SK-MEL-5, > 100 µM (inactive) in the test on SNB-19, > 100 µM (inactive) in the test on UACC-257 and > 100 µM (inactive) in the test with UO-31.
With `CCCCc1ccc2[n+](c1)C(C(=O)OCC)=PC2` (stereo unspecified), the GI50 in the test on A549, with BT-549, with CAKI-1, in the test on HCC 2998, with HCT-116 and in the test on HOP-62 was > 100 µM (inactive) throughout. Further, the GI50 in the test with MDA-MB-435 was > 100 µM (inactive); with NCI-H460, > 100 µM (inactive); in the test with OVCAR-4, > 100 µM (inactive); with OVCAR-5 it was > 100 µM (inactive); in the test on PC-3, > 100 µM (inactive); in the test with RPMI-8226, 28.2 µM (inactive). Also, the GI50 with SK-MEL-5 and in the test with UACC-257 was > 100 µM (inactive) each time.
With `COc1cc([C@H]2c3cc4c(cc3O[C@@]3(O)COC(=O)[C@@H]23)OCO4)cc(OC)c1OC`, the GI50 in the test with A549, in the test with CAKI-1, in the test on HCC 2998, with HCT-116, in the test on HOP-62 and with LOX IMVI was > 100 µM (inactive) in each case. Moreover, the GI50 in the test on MDA-MB-231, in the test with MDA-MB-435, in the test on NCI-H226, in the test on NCI-H460, in the test on OVCAR-4 and in the test with OVCAR-5 was > 100 µM (inactive) throughout. For the same compound, the GI50 with PC-3, in the test with RPMI-8226, in the test with SK-MEL-2, with SK-MEL-5, in the test on SNB-19 and in the test with UACC-257 was > 100 µM (inactive) each time. In the test on UO-31, the GI50 was > 100 µM (inactive).
On to `Cc1ccc(O)c(C2=CC(c3cccc(Cl)c3)SC(=N)N2)c1` (stereo unspecified), for which the GI50 with A549 was 23.3 µM (inactive); in the test on BT-549, 31.6 µM (inactive); in the test with CAKI-1, 28.2 µM (inactive); in the test on HCC 2998, 16.1 µM (inactive); in the test on HCT-116, 19.3 µM (inactive); in the test on HOP-62 it was 23 µM (inactive). Besides, the GI50 in the test on LOX IMVI is 18.6 µM (inactive); in the test with MDA-MB-435 it was 19 µM (inactive); in the test on NCI-H226, 16.6 µM (inactive); with NCI-H460 it was 23.9 µM (inactive); in the test with OVCAR-4, 1.77 µM (inactive); with OVCAR-5, 26.2 µM (inactive). For the same compound, the GI50 was 16.6 µM (inactive) with PC-3; 17.7 µM (inactive) in the test with RPMI-8226; 18.2 µM (inactive) in the test with SK-MEL-2; 16.1 µM (inactive) in the test with SK-MEL-5; 16.1 µM (inactive) in the test with SNB-19; 20.6 µM (inactive) in the test with UACC-257. In addition, the GI50 in the test with UO-31 is 27.4 µM (inactive).
Consider `O=C(/C=C/c1ccccc1)c1cc(C(=O)/C=C/c2ccccc2)c(O)cc1O`, for which the GI50 with A549 was > 100 µM (inactive); in the test on BT-549, > 100 µM (inactive); with CAKI-1, > 100 µM (inactive); in the test on HCC 2998 it was 88.3 µM (inactive); in the test on HCT-116 it was 60.1 µM (inactive); in the test on HOP-62, > 100 µM (inactive). The GI50 in the test on LOX IMVI is > 100 µM (inactive); with MDA-MB-435 it was > 100 µM (inactive); in the test with NCI-H460, > 100 µM (inactive); in the test with OVCAR-4 it was > 10 µM (inactive); in the test on OVCAR-5, > 100 µM (inactive); in the test with PC-3, > 100 µM (inactive). Also, the GI50 in the test with RPMI-8226 is 65.6 µM (inactive); with SK-MEL-2 it was > 100 µM (inactive); in the test on SK-MEL-5 it was 69.3 µM (inactive); in the test with SNB-19, > 100 µM (inactive); in the test with UACC-257, > 100 µM (inactive); with UO-31 it was 41.3 µM (inactive).
Take `N#Cc1c(N)oc(-c2ccc([N+](=O)[O-])cc2)c1C#N`: the GI50 is 23 µM (inactive) in the test with A549; 24.3 µM (inactive) in the test on CAKI-1; 32.7 µM (inactive) with HCC 2998; 29.2 µM (inactive) in the test with HCT-116; 24.5 µM (inactive) with HOP-62; 44.2 µM (inactive) with LOX IMVI. The GI50 was 22 µM (inactive) with MDA-MB-231; 47.4 µM (inactive) with MDA-MB-435; 17.9 µM (inactive) in the test with NCI-H226; 69.8 µM (inactive) with OVCAR-5; 22.5 µM (inactive) in the test with PC-3; 33.3 µM (inactive) with RPMI-8226. The GI50 is 24.3 µM (inactive) in the test on SK-MEL-2; 17 µM (inactive) in the test with SK-MEL-5; 27.5 µM (inactive) in the test with SNB-19; 25.2 µM (inactive) with UACC-257; 19.1 µM (inactive) in the test on UO-31.
